“Also recorded” adds a separate entry of the source.
Experiments:
HBV [1] = assay: Anti-HBV activity in HepAD38 cells, HBV DNA replication by real-time PCR; type: cell-based, Hepatitis B virus; conditions: for anti-HBV activity (result in words): HepAD38 system, concentrations up to 10 µM
HBV [2] = conditions: literature report; cited from earlier work

Row | SMILES | EC50 (HBV [1]; Hepatitis B virus, HePAD38, read-out: Anti-HBV activity, EC50, HepAD38 cells, inhibition of HBV DNA replication by 50%, tested 0.001 to 10 µM, duplicate) [µM] | anti-HBV activity (result in words) (HBV [1]) | inhibitor of HBV replication (reported in the literature) (HBV [2])
1 | COC(=O)C1=C(CN=[N+]=[N-])NC(c2ccccn2)=NC1c1ccc(F)cc1Cl (stereo not drawn) [Compound 21d] | 7.5 |  | 
2 | CC1=C(C(=O)NS(=O)(=O)N(C)C)C(c2ccc(F)cc2Cl)N=C(c2ccccn2)N1 (stereo not drawn) [Compound 26f] |  | none of them showed activity | 
3 | CC1=C(Cl)C(c2ccc(F)cc2Cl)N=C(c2ccccn2)N1 (stereo not drawn) [Compound 26c] |  | none of them showed activity; also recorded: inactive | 
4 | CC1=C(C(=O)OCC(F)(F)F)C(c2ccc(F)cc2Cl)N=C(c2ccccn2)N1 (stereo not drawn) [Compound 26e] |  | none of them showed activity | 
5 | CC1(C)CC(=O)C2=C(C1)NC(c1cccnc1)=NC2c1ccc(F)cc1Cl (stereo not drawn) [Compound 1, reference compound] |  | did not express any activity | submicromolar inhibitor
